Measured values from patent US7390782B2, “Methods and products related to metabolic interactions in disease” (University of Vermont and State Agricultural College, priority 1998, dated 2008).
Entries after “also recorded” stand apart in the source; their conditions may differ.

Legend:
L1210/DDP [1] = experiment: Fas expression by flow cytometry (FITC anti-Fas over isotype); assay type: cell-based; settings: for Fas expression: L1210 DDP, in the presence of staurosporine or ADRIAMYCIN
Protocol: (§1) 3. Fas Expression Increases as a Function of Glucose: We investigated the effect of increasing concentrations of glucoseon cell surface Fas expression. L1210 and L1210/DDP cells were cultured in glucose free RPMI media or in media supplemented with insulin and glucose for 16 hours. Intra- and extracellular Fas expression was determined by labeling the cells with FITC-conjugated anti-Fas antibodies (Pharmingen), or FITC-conjugated isotype control, then subtracting the fluorescence intensity of the isotype staining from Fas staining for each treatment group.
(§2) L1210, upper panels, and L1210/DDP cells, lower panels, were cultured in glucose free RPMI media, filled circles, or in media supplemented with insulin and glucose, squares, for 16 hours. Intra- and extracellular Fas expression was determined by labeling the cells with FITC-conjugated anti-Fas antibodies, or FITC-conjugated isotype control, then subtracting the fluorescence intensity of the isotype staining from Fas staining for each treatment group (FIG. 2). Results are presented as geometric mean fluorescence over background.
(§3) 4. […] We treated L1210 or L1210 DDP cells with the staurosporine, which inhibits protein kinase C and increases mitochondrial membrane potential, or an anti-cancer agent to which both cells are sensitive, ADRIAMYCIN™. Fas expression was increased or induced on both L1210 and L1210 DDP, respectively, in the presence of staurosporine or ADRIAMYCIN™ (FIG. 3). The L1210 DDP changed morphologically and began to divide rapidly, changes which appeared to correspond with a reversion back to the phenotype of the L1210 cells.
(§4) FIG. 23 is a graph depicting Sodium Acetate as a mitochondrial modifying agent. L1210 or L1210DDP cells were cultured in the presence of graded concentrations of sodium acetate in the medium. Cells were stained with Jo2.2, a fluorescein conjugated anti-Fas antibody, or an isotype control. Cell surface staining was measured flow cytometrically. The Percentage of mean fluorescence intensity over the isotype control was plotted.

L1210 [2] = experiment: as above; assay type: cell-based; settings: for Fas expression: in the presence of staurosporine or ADRIAMYCIN
Protocol: as §1, §2, §3, §4

[3] = tested on: resting B-cells from (NZB×NZW)F1 and (NZB×SWR)F1 mice; experiment: cAMP in resting B-cells from autoimmune strains; assay type: cell-based
Protocol: Following the protocols as described in Newell, M K, et al. (Proc Natl Acad Sci, USA, 1993, 90:10459-10463) for resting B lymphocytes from normal mice, we isolated resting B-cells from spleens of (NZB×NZW)F1 and (NZB×SWR)F1 mice by Percoll gradient separation and treated the cells with antibodies to class II molecules, FIG. 12. Experiments utilized mice younger than 3 months of age. […] Resting (1.079<r<1.085) B-cells from normal; […], animals were treated for 10 min at 37° C. with stimuli indicated. Levels of cAMP were determined as described in FIG. 1. Means (and standard errors) from three experiments are shown for normal animals. The means from two experiments are shown for each of the F1 hybrid animals.

[4] = tested on: resting B-cells from (NZB×NZW)F1 and (NZB×SWR)F1 mice; experiment: Apoptosis (DNA fragments) in resting B-cells from autoimmune strains; assay type: cell-based
Protocol: We stimulated both resting and activated B-cells from (NZB×NZW)F1 and (NZB×SWR)F1 mice with antibodies to class II molecules. Young animals, prior to the development of lupus-like autoantibody and renal disease, were used in these studies. […] Agarose gel electrophoresis of DNA fragments from high density resting B-cells (1.079<r<1.085) was carried out as described in FIG. 2. Normalized areas produced by scanning densitometry on the gels shown above for normal; (NZB×SWR)F1; or (NZB×NZW)F1, animals. […] For normal animals, the mean and standard error of four experiments are shown. For the (NZB×NZW)F1 animals, representative data from one of two experiments is shown and for (NZB×SWR)F1 animals, a single experiment is shown. Because experiments were performed on different days it is impossible to compare background levels of apoptosis between strains; however, it should be noted that there is significant variability in background levels of apoptosis, with those for the (NZB×NZW)F1 animals apparently tending to be higher than for the other strains.

[5] = tested on: splenic lymphocytes from C57BL/6, C57BL6.lpr and C57BL.gld; experiment: Viability of splenic lymphocytes cultured with methotrexate; assay type: cell-based, mice; settings: Fas deficient lymphocytes; 5×10^-8 M methotrexate, 18 or 32 hours
Protocol: 8. Fas Deficient Lymphocytes are also drug resistant to methotrexate: We isolated splenic lymphocytes from aged-matched wild type C57BL/6 mice and C57BL6.lpr and C57BL.gld. Splenocytes from C57BL/6 lpr or gld animals were isolated, red cells depleted, and single cell suspensions prepared. Cells were cultured in the absence or presence of 5×10^−8 M methotrexate for 18 or 32 hours. Cells were harvested and viability was determined by flow cytometric analysis and confirmed with trypan blue exclusion.

L1210/DDP [6] = experiment: Methotrexate-induced death, flow cytometry and DNA fragment analysis; assay type: cell-based; settings: 10^-8 M methotrexate, 24 hours
Protocol: (§5) Additionally, L1210 and L1210/DDP cells were treated with 10−8 M methotrexate for 24 hours. […] The forward scatter low populations took up ethidium bromide differentially. The L1210 cells took up a moderate amount. […] This latter phenotype—loss in forward scatter and membrane permeability with no “DNA laddering”—is the hall mark of oncosis.

L1210 [7] = experiment: as above; assay type: cell-based; settings: 10^-8 M methotrexate, 24 hours
Protocol: as §5

B16 melanoma cells [8] = settings: increasing concentrations
Protocol: FIG. 18 depicts the rates of glucose utilization and oxidation in B16 melanoma cells. Again cells were cultured in the presence of varying concentration of sodium acetate.

B16 melanoma cells [9] = settings: increasing concentrations; remark: listed apart in the source
Protocol: B16 cells were cultured in the in the presence of different concentrations of sodium acetate and Fas expression was measured.

L1210 [10] = settings: FasL bearing cells over mock-transfectants
Excerpt: (§6) Cells cultured with acetate were loaded with 51 Cr and plated onto FasL bearing or mock transfected fibroblast to determine sensitivity to Fas-induced cell death. Results are reported as percent chromium release from cells in the presence of FasL bearing cells over mock-transfectants.

L1210DDP = settings: FasL bearing cells over mock-transfectants
Excerpt: as §6

v-Crk cells = experiment: Cytofluorometric analysis of Fas, B7.1, B7.2 cell surface expression; assay type: cell-based, Rat
Protocol: (§7) Cell Culture: Rat pheochromocytoma cell lines, including PC12, Trk and v-Crk cells were a kind gift from Dr. Raymond Birge. They were maintained in complete RPMI 1640 (GIBCO) supplemented with 7% heat inactivated fetal calf serum and 3% heat inactivated horse serum at 37° C. in a humidified incubator with 5% CO2. The PC12 transfectants were generated as described previously (Glassman et al., 1997, Hempstead et al., 1994). Cells were plated in 6 well culture plates at a concentration ranging from 2-8×10^6 cells/well, according to the cell type's growth kinetics, and 5 ml complete medium. NGF-7S from mouse submaxillary glands (Sigma Chemical Co.) or EGF, kindly provided by Dr. Raymond Birge, was added at a concentration of 50 ng/ml culture medium and the cells were incubated for 24 or 48 hours.
(§8) Cytofluorometric Analysis: Cells were harvested after a 10 minute incubation period on ice in order to diminish their adherence to the plastic culture flask. They were spun at 1210 rpm, for 7 minutes, resuspended in medium and counted after trypan blue staining. Equal numbers of cells were placed in 12×75 mm flow tubes (range: 0.1-1×10^6 cells/tube), washed in PBS and 5% FBS and stained at 4° C. The following stains were used: a) fluorescein isothiocyanate (FITC) hamster IgG isotype standard, b) FITC anti-mouse Fas, c) FITC anti-mouse CD80 (B7.1), d) phycoerythrin (PE) mouse IgG2b K isotype standard and e) PE anti-mouse CD86 (B7.2). All antibodies were obtained from Pharmingen.
(§9) After incubation on ice for 20 minutes, cells were washed, resuspended in PBS and 5% FCS and analyzed by flow cytometry (Becton Dickinson). Histogram plots were derived from dot plots gated on the live cell population according to the forward versus side scatter ratio (Cell Quest Program). The absolute Fas, B7.1 and B7.2 values presented on the graphs were obtained by subtracting the […]. Values were considered subjectively positive (+) if the difference was statistically significant (p<0.001) according to the applied Kilmogorov-Smirnov statistical analysis.

PC12 cells = experiment: as above; assay type: cell-based, Rat; settings: 50 ng/ml
Protocol: as §7, §8, §9

TrkA cells = experiment: as above; assay type: cell-based, Rat; settings: Trk cells, 50 ng/ml
Protocol: as §7, §8, §9

Compound: COc1cccc2c1C(=O)c1c(O)c3c(c(O)c1C2=O)C[C@@](O)(C(=O)CO)C[C@@H]3O[C@H]1C[C@H](N)[C@H](O)[C@H](C)O1 [ADRIAMYCIN™]
- Fas expression (L1210/DDP [1]): induced
- Fas expression (L1210 [2]): increased

Compound: CC(C)NCC(O)c1ccc(O)c(O)c1 (stereo not shown) [isoproterenol]
- intracellular cAMP response [3]: normal
- apoptosis ([4]; (NZB×NZW)F1 B-cells): minimal evidence of apoptosis
- apoptosis ([4]; B-cells from (NZB×SWR)F1 mice): intermediate level

Compound: CN(Cc1cnc2nc(N)nc(N)c2n1)c1ccc(C(=O)N[C@@H](CCC(=O)O)C(=O)O)cc1 [methotrexate]
- susceptibility to methotrexate-induced apoptosis [5]: decreased susceptibility
- DNA fragments (laddering) (L1210/DDP [6]): did not
- DNA fragments (laddering) (L1210 [7]): produced a ladder of nucleosome sized fragments indicative of apoptosis

Compound: CC(=O)[O-].[Na+] [sodium acetate]
- glucose oxidation (B16 melanoma cells [8]): decreased
- glucose utilization (B16 melanoma cells [8]): decreased
- cell surface Fas expression (L1210/DDP [1]; L1210DDP, graded concentrations of sodium acetate in the medium): increases cell surface Fas expression
- cell surface Fas expression (L1210 [2]; graded concentrations of sodium acetate in the medium): increases cell surface Fas expression
- levels of cell surface Fas (B16 melanoma cells [9]; non-permeabilized B16 cells): increased
- levels of intracellular Fas (B16 melanoma cells [9]; permeabilized B16 cells): declined
- susceptibility to Fas-dependent cell death (percent chromium release) (L1210 [10]): results in susceptibility to Fas-dependent cell death
- susceptibility to Fas-dependent cell death (percent chromium release) (L1210DDP): results in susceptibility to Fas-dependent cell death

Compound: CN[C@@H]1C[C@H]2O[C@@](C)([C@@H]1OC)n1c3ccccc3c3c4c(c5c6ccccc6n2c5c31)C(=O)NC4 [staurosporine]
- Fas expression and susceptibility to drug-induced apoptosis (L1210/DDP [1]; L1210 DDP cells treated with staurosporin): restores Fas expression and susceptibility to drug-induced apoptosis
- Fas expression (L1210/DDP [1]): induced
- Fas expression (L1210 [2]): increased

Compound: EGF: EGF, kindly provided by Dr. Raymond Birge
- B7.1 cell surface expression (v-Crk cells; 50 ng/ml, 24 and 48 hours of culture): significantly increases B7.1 expression
- Fas cell surface expression (v-Crk cells; 50 ng/ml, stimulation 24 hours): significantly up-regulates Fas expression; also recorded: increases three-fold
- B7.2 cell surface expression (v-Crk cells; 50 ng/ml, stimulation 48 hours): significant induction
- Fas cell surface expression (v-Crk cells; 50 ng/ml, stimulation 48 hours): down-regulated and abrogated
- B7.2 cell surface expression (v-Crk cells; after withdrawal): again undetectable
- B7.1 cell surface expression (PC12 cells; stimulation 24 hours): significantly lowers
- Fas cell surface expression (PC12 cells; stimulation 24 hours): downregulates Fas expression
- B7.1 cell surface expression (PC12 cells; stimulation 48 hours): reestablishes the basal values
- B7.2 cell surface expression (PC12 cells; stimulation 48 hours): up-regulates B7.2 expression
- Fas cell surface expression (PC12 cells; stimulation 48 hours): totally abrogates Fas expression
- B7.1 cell surface expression (TrkA cells; stimulation 24 hours): lowered
- Fas cell surface expression (TrkA cells; stimulation 24 hours): downregulates Fas expression
- B7.1 cell surface expression (TrkA cells; stimulation 48 hours): reestablished
- B7.2 cell surface expression (TrkA cells; stimulation 48 hours): most significant
- Fas cell surface expression (TrkA cells; stimulation 48 hours): totally abrogates Fas expression
